Article PMC7221574 (Molecules, 2020)
Where “and” joins values, the source holds several entries; their conditions need not be identical. Equal entries are not always repeated. Where two headings read alike, the source gives them in different places.

Columns and labels:
A549 = test: In vitro antiproliferative activity, SRB assay, A549; format: cell-based, human; conditions: human lung adenocarcinoma, 72 h, SRB, mean ± SD
Procedure: (§1) The A549 cell line was purchased from the European Collection of Authenticated Cell Cultures (ECACC, Salisbury, UK). The MCF-7, LoVo and LoVo/DX cell lines was purchased from American Type Culture Collection (ATCC, Manassas, VA, USA). All the cell lines are maintained in the Institute of Immunology and Experimental Therapy (IIET), Wroclaw, Poland.
(§2) Human lung adenocarcinoma cell line was cultured in a mixture of OptiMEM and RPMI 1640 (1:1) medium (IIET, Wroclaw, Poland), supplemented with 5% fetal bovine serum HyClone (GE Healthcare, USA) and 2 mM L-glutamine (Sigma-Aldrich, Germany). Human breast adenocarcinoma cell line was cultured in a mixture of Eagle medium (IIET, Wroclaw, Poland), supplemented with 10% fetal bovine serum, 2 mM L-glutamine, 8 μg/mL insulin and 1% amino acids (Sigma-Aldrich, Germany). Human colon adenocarcinoma cell lines were cultured in a mixture of OptiMEM and RPMI 1640 (1:1) medium (IIET, Wroclaw, Poland), supplemented with 5% fetal bovine serum HyClone (GE Healthcare, USA), 2 mM L-glutamine, 1 mM sodium pyruvate (Sigma-Aldrich, Germany) and 10 μg/100 mL doxorubicin (Accord) for LoVo/DX. Murine embryonic fibroblast cells were cultured in Dulbecco medium (Gibco), supplemented with 10% fetal bovine serum (GE Healthcare, USA) and 2 mM L-glutamine (Sigma-Aldrich, Germany). All culture media contained antibiotics: 100 U/mL penicillin (Polfa-Tarchomin, Poland) and 0.1 mg/mL streptomycin (Sigma Aldrich, Germany). All cell lines were cultured during entire experiment in humid atmosphere at 37 °C and 5% CO2.
(§3) All cell lines were exposed to each tested agent at different concentrations in the range 100–0.001 μg/mL for 72 h. The cells were also exposed to the reference drug cisplatin (Teva Pharmaceuticals, Poland) and doxorubicin (Accord Healthcare Limited, UK). Additionally, all cell lines were exposed to DMSO (solvent used for tested compounds) (POCh, Poland) at concentrations corresponding to those present in dilutions of tested agents. After 72 h sulforhodamine B assay (SRB) was performed.
(§4) After 72 h of incubation with the tested compounds, the cells were fixed in situ by gently adding of 50 μL per well of cold 50% trichloroacetic acid TCA (POCh, Poland) and were incubated at room temperature for one hour. Then the wells were washed four times with water and air dried. Next, 50 μL of 0.1% solution of sulforhodamine B (Sigma-Aldrich, Germany) in 1% acetic acid (POCh, Poland) were added to each well and were incubated at room temperature for 0.5 h. After incubation time, unbound dye was removed by washing plates four times with 1% acetic acid, whereas the stain bound to cells was solubilized with 150 μL of 10 mM Tris base (Sigma-Aldrich, Germany). Absorbance of each solution was read from a Synergy H4 Hybrid Multi-Mode Microplate Reader (BioTek Instruments, USA) at the 540 nm wavelength.

MCF-7 = test: In vitro antiproliferative activity, SRB assay, MCF-7; format: cell-based, human; conditions: for IC50: human breast adenocarcinoma, 72 h, SRB, mean ± SD; for selectivity index (SI) MCF-7: SI = (IC50 BALB/3T3)/(IC50 MCF-7)
Procedure: as §1, §2, §3, §4

LoVo = test: In vitro antiproliferative activity, SRB assay, LoVo; format: cell-based, human; conditions: for IC50: 72 h, human colon adenocarcinoma, SRB, mean ± SD
Procedure: as §1, §2, §3, §4

LoVo/DX = test: cells; format: cell-based, human; conditions: for IC50: Homo sapiens, LoVo/DX, 72 h, read-out: IC50 LoVo/DX; for RI (resistance index): RI = (IC50 for LoVo/DX)/(IC50 for LoVo)
Procedure: as §1, §2, §3, §4

BALB/3T3 = test: In vitro antiproliferative activity, SRB assay, normal fibroblasts BALB/3T3; format: cell-based, murine; conditions: Mus musculus, BALB/3T3; normal murine embryonic fibroblasts, 72 h, SRB, mean ± SD
Procedure: as §1, §2, §3, §4

CNc1ccc2c(cc1=O)[C@@H](NC(=O)c1ccccc1)CCc1cc(OC)c(OC)c(OC)c1-2 [Compound 12]
IC50 (A549; Homo sapiens, A549, 72 h): 0.013 ± 0.0013 µM | IC50 (MCF-7; Homo sapiens, MCF7, 72 h): 0.013 ± 0.0013 µM | IC50 (LoVo; Homo sapiens, LoVo): 0.0085 ± 0.0004 µM | IC50 (LoVo/DX): 0.0999 ± 0.01 µM | RI (resistance index) (LoVo/DX): 11.8 | IC50 (BALB/3T3): 0.013 ± 0.0033 µM

CNc1ccc2c(cc1=O)[C@@H](NC(=O)c1ccccc1Cl)CCc1cc(OC)c(OC)c(OC)c1-2 [Compound 13]
IC50 (A549; Homo sapiens, A549, 72 h): 0.0063 ± 0.0032 µM | IC50 (MCF-7; Homo sapiens, MCF7, 72 h): 0.0092 ± 0.0008 µM | IC50 (LoVo; Homo sapiens, LoVo): 0.0007 ± 0.0001 µM | selectivity index (SI) LoVo (LoVo; SI = (IC50 BALB/3T3)/(IC50 LoVo)): over 6 | IC50 (LoVo/DX): 0.0096 ± 0.0033 µM | times more potent than unmodified colchicine 1 (LoVo/DX; LoVo/DX line): approx. 170 times | RI (resistance index) (LoVo/DX): 14.0 | IC50 (BALB/3T3): 0.0062 ± 0.0016 µM

CNc1ccc2c(cc1=O)[C@@H](NC(=O)c1cccc(F)c1)CCc1cc(OC)c(OC)c(OC)c1-2 [Compound 14]
IC50 (A549; Homo sapiens, A549, 72 h): 0.0107 ± 0.0006 µM | IC50 (MCF-7; Homo sapiens, MCF7, 72 h): 0.0126 ± 0.0013 µM | IC50 (LoVo; Homo sapiens, LoVo): 0.0086 ± 0.0008 µM | IC50 (LoVo/DX): 0.103 ± 0.0249 µM | RI (resistance index) (LoVo/DX): 12.0 | IC50 (BALB/3T3): 0.0126 ± 0.0021 µM

CNc1ccc2c(cc1=O)[C@@H](NC(=O)c1cccnc1)CCc1cc(OC)c(OC)c(OC)c1-2 [Compound 15]
IC50 (A549; Homo sapiens, A549, 72 h): 0.0368 ± 0.0121 µM | IC50 (MCF-7; Homo sapiens, MCF7, 72 h): 0.013 ± 0.0022 µM | IC50 (LoVo; Homo sapiens, LoVo): 0.0108 ± 0.0013 µM | IC50 (LoVo/DX): 0.832 ± 0.293 µM | RI (resistance index) (LoVo/DX): 76.8 | IC50 (BALB/3T3): 0.0433 ± 0.0297 µM

CNc1ccc2c(cc1=O)[C@@H](NC(=O)c1ccncc1)CCc1cc(OC)c(OC)c(OC)c1-2 [Compound 16]
IC50 (A549; Homo sapiens, A549, 72 h): 0.0173 ± 0.0037 µM | IC50 (MCF-7; Homo sapiens, MCF7, 72 h): 0.0128 ± 0.0009 µM | IC50 (LoVo; Homo sapiens, LoVo): 0.0108 ± 0.0013 µM | IC50 (LoVo/DX): 0.947 ± 0.261 µM | RI (resistance index) (LoVo/DX): 87.4 | IC50 (BALB/3T3): 0.052 ± 0.0293 µM

CNc1ccc2c(cc1=O)C(NS(N)(=O)=O)CCc1cc(OC)c(OC)c(OC)c1-2 (stereo not shown) [Compound 17]
IC50 (A549; Homo sapiens, A549, 72 h): 0.0566 ± 0.0147 µM | IC50 (MCF-7; Homo sapiens, MCF7, 72 h): 0.0103 ± 0.0039 µM | selectivity index (SI) MCF-7 (MCF-7): ~10 and 9.8 | IC50 (LoVo; Homo sapiens, LoVo): 0.0211 ± 0.0175 µM | IC50 (LoVo/DX): 6.47 ± 0.264 µM | RI (resistance index) (LoVo/DX): 306.0 | IC50 (BALB/3T3): 0.1 ± 0.0241 µM

CNc1ccc2c(cc1=O)C(NS(=O)(=O)N(C)C)CCc1cc(OC)c(OC)c(OC)c1-2 (stereo not shown) [Compound 18]
IC50 (A549; Homo sapiens, A549, 72 h): 0.0093 to 0.0155 µM | IC50 (A549): 0.0106 ± 0.0006 µM | IC50 (MCF-7; Homo sapiens, MCF7, 72 h): 0.0093 to 0.0155 µM | IC50 (MCF-7): 0.0155 ± 0.0017 µM | IC50 (LoVo; Homo sapiens, LoVo): 0.0093 to 0.0155 µM | IC50 (LoVo): 0.0093 ± 0.0011 µM | IC50 (LoVo/DX): 0.54 ± 0.107 µM | RI (resistance index) (LoVo/DX): 57.8 | IC50 (BALB/3T3): 0.0142 ± 0.0132 µM

C=CS(=O)(=O)NC1CCc2cc(OC)c(OC)c(OC)c2-c2ccc(NC)c(=O)cc21 (stereo not shown) [Compound 19]
IC50 (A549; Homo sapiens, A549, 72 h): 0.0114 ± 0.0017 µM | IC50 (MCF-7; Homo sapiens, MCF7, 72 h): 0.013 ± 0.0043 µM | IC50 (LoVo; Homo sapiens, LoVo): 0.0084 ± 0.0007 µM | IC50 (LoVo/DX): 0.307 ± 0.145 µM | RI (resistance index) (LoVo/DX): 36.7 | IC50 (BALB/3T3): 0.0083 ± 0.0038 µM

CNc1ccc2c(cc1=O)C(NS(=O)(=O)CCN1CCOCC1)CCc1cc(OC)c(OC)c(OC)c1-2 (stereo not shown) [Compound 20]
IC50 (A549; Homo sapiens, A549, 72 h): 0.8 ± 0.13 µM | IC50 (MCF-7; Homo sapiens, MCF7, 72 h): 0.15 ± 0.0253 µM | selectivity index (SI) MCF-7 (MCF-7): 6.6 | IC50 (LoVo; Homo sapiens, LoVo): 0.268 ± 0.094 µM | IC50 (LoVo/DX): 44.4 ± 23.9 µM | RI (resistance index) (LoVo/DX): 165.4 | IC50 (BALB/3T3): 0.991 ± 0.281 µM

CNc1ccc2c(cc1=O)[C@@H](NS(=O)(=O)c1ccc(C(F)(F)F)cc1)CCc1cc(OC)c(OC)c(OC)c1-2 [Compound 21]
IC50 (A549; Homo sapiens, A549, 72 h): 0.0855 ± 0.0054 µM | IC50 (MCF-7; Homo sapiens, MCF7, 72 h): 0.134 ± 0.0415 µM | IC50 (LoVo; Homo sapiens, LoVo): 0.0735 ± 0.0157 µM | IC50 (LoVo/DX): 6.12 ± 0.825 µM | RI (resistance index) (LoVo/DX): 83.3 | IC50 (BALB/3T3): 0.0876 ± 0.0135 µM

COc1cccc2c1C(=O)c1c(O)c3c(c(O)c1C2=O)C[C@@](O)(C(=O)CO)C[C@@H]3O[C@H]1C[C@H](N)[C@H](O)[C@H](C)O1 [Doxorubicin, reference compound]
IC50 (A549; Homo sapiens, A549, 72 h): 0.142 ± 0.046 µM | IC50 (MCF-7; Homo sapiens, MCF7, 72 h): 0.204 ± 0.0478 µM | IC50 (LoVo; Homo sapiens, LoVo): 0.0994 ± 0.041 µM | IC50 (LoVo/DX; doxorubicin-resistant colon adenocarcinoma subline, SRB, mean ± SD): 8.73 ± 2.54 µM | RI (resistance index) (LoVo/DX): 87.9 | IC50 (BALB/3T3): 0.149 ± 0.127 µM
